Measurements from patent US11071731B2, “Allosteric modulators of the mu opioid receptor” (Chiromics, LLC, priority 2017, dated 2021).
Read-outs that look alike come from different tables or passages of the source.

How the values were obtained:
[1] = target: T1, PK-tagged delta opioid receptors (U20S-DOR1) (Homo sapiens, UniProt P41143); assay: β-arrestin recruitment in U20S PathHunter cells, PAM mode with EC20 DADLE; assay type: cell-based; conditions: EC20 (0.8 nM) DADLE; concentrations up to 25 μM
T1 construct: host or cells: U20S Path Hunter cells

mu opioid receptor (MOR) [2] = target: T2, mu opioid receptor (MOR) (Homo sapiens, UniProt P35372); assay: PathHunter β-arrestin recruitment assay, PAM mode with EC20 endomorphin-1; assay type: cell-based; conditions: for allosteric activity for β-arrestin recruitment: EC20 endomorphin-1 concentration of 4.5 nM
In short: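 β-Arrestin recruitment to the receptor was tracked by chemiluminescent β-galactosidase activity from complementing fragments (ED on receptor, EA on β-arrestin). Per-compound outputs were EC50 and percent maximal response.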

mu opioid receptor (MOR) [3] = target: T2, mu opioid receptor (MOR); assay: Hit Hunter cAMP signaling assay (adenylyl cyclase inhibition), PAM mode with EC20 endomorphin-1; assay type: cell-based; conditions: for allosteric activity for cAMP signaling: EC20 endomorphin-1 concentration of 0.45 nM; for Max. Response: cAMP
[4] = target: T3, PK-tagged kappa opioid receptors (U20S-KOR1) (Homo sapiens, UniProt P41145); assay: β-arrestin recruitment in U20S PathHunter cells, PAM mode with EC20 Dynorphin A; assay type: cell-based; conditions: EC20 (0.8 nM) Dynorphin A; concentrations up to 25 μM
T3 construct: host or cells: U20S Path Hunter cells

[5] = target: T4, mu opioid receptor subtype OPRM1 (Homo sapiens, UniProt P35372); assay: β-arrestin recruitment assay, antagonist format; assay type: cell-based; conditions: Table 18
Method: Beta-Arrestin Pathway: The PathHunter β-arrestin assay monitors the activation of a GPCR in a homogenous, non-imaging assay format using a technology developed by DiscoveRx called Enzyme Fragment Complementation (EFC) with beta-galactosidase (β-Gal) as the functional reporter. […] EA is fused to β-Arrestin and ED is fused to the GPCR of interest. When the GPCR is activated and β-arrestin is recruited to the receptor, ED and EA complementation occurs, restoring β-gal activity, which is measured using chemiluminescent PathHunter Detection Reagents.
Similar results were obtained when agonist and antagonist activity were assayed using cAMP signaling as the readout.

MOR [6] = target: T5, MOR (Homo sapiens, UniProt P35372); assay type: cell-based
MOR [7] = target: T5, MOR; assay type: cell-based; remark: listed apart in the source
MOR [8] = target: T5, MOR; assay: cell-based; conditions: EC20 Oxycodone agonism of MOR; for EC50: RC50, cAMP; for Max. Response: cAMP
MOR [9] = target: T5, MOR; assay: cell-based; conditions: EC20 morphine agonism of MOR; for EC50: RC50, β-arrestin; for Max. Response: β-arrestin
MOR [10] = target: T5, MOR; assay type: cell-based; conditions: β-arrestin; EC20 EM2 agonism of MOR
MOR [11] = target: T5, MOR; assay type: cell-based; conditions: cAMP; EC20 EM2 agonism of MOR
[12] = target: T4, mu opioid receptor subtype OPRM1; assay: cell-based
MOR [13] = target: T5, MOR; assay: cell-based; conditions: EC20 Oxycodone agonism of MOR; for EC50: RC50, β-arrestin; for Max. Response: β-arrestin
MOR [14] = target: T5, MOR; assay: cell-based; conditions: EC20 morphine agonism of MOR; for EC50: RC50, cAMP; for Max. Response: cAMP
Sprague-Dawley rats [15] = assay: Gastrointestinal transit of charcoal bolus and stomach contents; conditions: morphine 10 mg/kg, compound 9 15, 30, 60 mg/kg
Sprague-Dawley rats [16] = assay: Respiratory depression: blood oxygen saturation by pulse oximetry; assay type: in vivo; conditions: subcutaneous; morphine 10 mg/kg, compound 9 15, 30, 60 mg/kg; 90 minutes
Method: Respiratory depression is a significant side effect associated with opioid treatment of acute and chronic pain. Drug-related overdose deaths are often a function of the respiratory depression which occurs with opioid use. Efforts to generate analgesics that dissociate pain relief from side effects are critical to the advancement of public health. […] […].
Blood oxygen saturation was assessed in awake rats with the MouseOx oximeter system (Starr Life Sciences, Holliston, Mass.). Up to 5 samples were measured every 5 minutes for 15 minutes prior to dosing and 90 minutes after dosing. Each animal was habituated to the device over several days prior to the study.

[17] = maximal response for β-arrestin recruitment
[18] = β-arrestin recruitment, read-out: β-arr. EC50
[19] = adenylyl cyclase inhibition, read-out: cAMP EC50
[20] = maximal response for adenylyl cyclase inhibition
[21] = β-arrestin, EC20 EM-1 agonism of MOR
[22] = β-arrestin, EC20 EM-1 agonism of MOR, read-out: RC50 (the source's name)
[23] = RC50, cAMP, EC20 EM-1 agonism of MOR
[24] = cAMP EC50, adenylyl cyclase inhibition

T4 sequence (P35372 whole entry, the tested form may be a part): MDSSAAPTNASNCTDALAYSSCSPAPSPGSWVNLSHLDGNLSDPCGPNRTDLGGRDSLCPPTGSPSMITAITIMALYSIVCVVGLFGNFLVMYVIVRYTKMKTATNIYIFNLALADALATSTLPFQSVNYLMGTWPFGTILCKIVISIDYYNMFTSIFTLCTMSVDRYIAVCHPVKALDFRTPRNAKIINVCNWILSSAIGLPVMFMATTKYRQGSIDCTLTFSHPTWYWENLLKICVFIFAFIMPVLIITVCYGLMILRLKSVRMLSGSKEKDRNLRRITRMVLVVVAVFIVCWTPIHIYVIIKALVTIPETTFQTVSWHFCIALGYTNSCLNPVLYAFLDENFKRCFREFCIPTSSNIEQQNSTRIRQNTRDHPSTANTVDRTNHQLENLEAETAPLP
T2 sequence (P35372 whole entry, the tested form may be a part): as above
T5 sequence (P35372 whole entry): as the sequence (P35372 whole entry, the tested form may be a part) above

SMILES | β-arr Max. Resp. (mu opioid receptor (MOR) [2]; [17]) | EC50 (mu opioid receptor (MOR) [2]; [18]) | EC50 (mu opioid receptor (MOR) [3]; [19]) | cAMP Max. Resp. (mu opioid receptor (MOR) [3]; [20]) | IC50 [5] | allosteric activity for β-arrestin recruitment (mu opioid receptor (MOR) [2]) | allosteric activity for cAMP signaling (mu opioid receptor (MOR) [3]) | EC50 (MOR [8]) | Max. Response (MOR [8]) | EC50 (MOR [9]) | Max. Response (MOR [9]) | Max. Response (mu opioid receptor (MOR) [2]; [21]) | EC50 (mu opioid receptor (MOR) [2]; [22]) | EC50 (MOR [13]) | Max. Response (MOR [13]) | EC50 (mu opioid receptor (MOR) [3]; [23]) | EC50 (mu opioid receptor (MOR) [3]; [24]) | Max. Response (mu opioid receptor (MOR) [3]; EC20 EM-1 agonism of MOR) | EC50 (MOR [14]) | Max. Response (MOR [14]) | also measured
O=S(=O)(c1ccc(Cl)cc1)N1CCCCC1c1ccc(F)c(Br)c1 (racemic) [compound 60] | F (F represents a maximal response of > 60%) | < 700 nM | < 700 nM | E (E represents a maximal response of 40-60%) |  |  |  |  |  |  |  |  |  |  |  |  |  |  |  |  | positive allosteric effect on DOR signaling [1]: no significant positive allosteric effect; β-arrestin Max Response (mu opioid receptor (MOR) [2]; β-arrestin recruitment, activity switching by MOR PAMs): F (F represents a maximal response of >60%); EC50 (mu opioid receptor (MOR) [2]; β-arrestin recruitment, activity switching by MOR PAMs, read-out: β-arrestin EC50): > 2100 nM; cAMP Max Resp. (mu opioid receptor (MOR) [3]; adenylyl cyclase inhibition, activity switching by MOR PAMs): D (D represents a maximal response of < 40%); EC50 (mu opioid receptor (MOR) [3]; adenylyl cyclase inhibition, activity switching by MOR PAMs, read-out: cAMP EC50): > 2100 nM; positive allosteric effect on KOR signaling [4]: no significant positive allosteric effect
COc1ccc(C2C(C(F)(F)F)CCN2S(=O)(=O)c2ccc(Cl)cc2)cc1Br (single isomer, unassigned) [Compound 108] | F (F represents a maximal response of > 60%) | > 2100 nM | > 2100 nM | E (E represents a maximal response of 40-60%) | > 25 µM | moderate positive allosteric effect | moderate positive allosteric effect |  |  |  |  |  |  |  |  |  |  |  |  |  | 
COc1ccc(C2CC(C(F)(F)F)CN2S(=O)(=O)c2ccc(Cl)cc2)cc1Br (single isomer, unassigned) [Compound 109] | F (F represents a maximal response of > 60%) | > 2100 nM | < 700 nM | E (E represents a maximal response of 40-60%) | > 25 µM | moderate positive allosteric effect | moderate positive allosteric effect |  |  |  |  |  |  |  |  |  |  |  |  |  | 
COc1ccc(C2N(S(=O)(=O)c3ccc(Cl)cc3)CCC2(F)F)cc1Br (single isomer, unassigned) [Compound 110] | F (F represents a maximal response of > 60%) | > 2100 nM | > 2100 nM | F (F represents a maximal response of > 60%) | > 25 µM | moderate positive allosteric effect | moderate positive allosteric effect |  |  |  |  |  |  |  |  |  |  |  |  |  | 
COc1ccc(C2CCCCN2S(=O)(=O)c2ccc(Cl)cc2)cc1Br (single isomer, unassigned) [compound 6] | F (F represents a maximal response of > 60%) | 700 to 2100 nM |  | F (F represents a maximal response of > 60%) | > 25 µM | moderate positive allosteric effect | moderate positive allosteric effect | 320 nM | 90 | 8250 nM | 421 | 173 | 2520 nM | 4830 nM | 384 | 500 nM | < 700 nM | 93 | 2960 nM | 93 | factor of increase of the affinity (α) of oxycodone (MOR [6]; β-arrestin): 2; factor of increase of the efficacy (β) of oxycodone (MOR [6]; β-arrestin): 80; shift in the potency of oxycodone (MOR [6]; β-arrestin recruitment): concentration-dependent and saturable leftward shifts; shift in the potency of oxycodone (MOR [7]; adenylyl cyclase inhibition): concentration-dependent and saturable leftward shifts; factor of increase of the affinity (α) of oxycodone (MOR [7]; cAMP): 4; factor of increase of the efficacy (β) of oxycodone (MOR [7]; cAMP): 4; effective potency for PAM effect (MOR [7]; cAMP signal, oxycodone): 234 nM; Max. Response (MOR [10]): 117; Max. Response (MOR [11]): 91; EC50 [12]: > 25000 nM
Fc1cnc(Cl)nc1N1CCCCC1c1cccc(C(F)(F)F)c1 (single isomer, unassigned) [compound 8] | F (F represents a maximal response of > 60%) | < 700 nM |  | F (F represents a maximal response of > 60%) |  |  |  | 1910 nM | 56 | 7110 nM | 487 | 213 | 330 nM | 12900 nM | 343 | 840 nM | 700 to 2100 nM | 76 | 2000 nM | 44 | 
COc1ccc(C2C3CCC(C3)N2S(=O)(=O)c2ccc(Cl)cc2)cc1Br (stereo not shown) [Compound 177] | F (F represents a maximal response of > 60%) | > 2100 nM | > 2100 nM | E (E represents a maximal response of 40-60%) | > 25 µM | moderate positive allosteric effect | moderate positive allosteric effect |  |  |  |  |  |  |  |  |  |  |  |  |  | 
Fc1ccc(Cl)cc1CN1CCCCC1c1cccc(C(F)(F)F)n1 (stereo not shown) [compound 2] | F (F represents a maximal response of > 60%) | < 700 nM |  | F (F represents a maximal response of > 60%) |  | high positive allosteric activity | high positive allosteric activity | > 25000 nM | 5 | 9590 nM | 156 | 143 | 360 nM | 13600 nM | 126 | 570 nM | < 700 nM | 81 | > 25000 nM | 26 | Max. Response (MOR [10]): 97; Max. Response (MOR [11]): 83; signaling preference β-arrestin vs cAMP (mu opioid receptor (MOR) [2]; comparison of β-arrestin and cAMP assays): roughly equivalent signaling for β-arrestin and cAMP; β-arr. Max Resp. (mu opioid receptor (MOR) [2]; maximal response for β-arrestin recruitment, Table 3): 72; EC50 (mu opioid receptor (MOR) [2]; β-arrestin recruitment, Table 3, read-out: β-arr. EC50): 155 nM; EC50 (mu opioid receptor (MOR) [3]; cAMP EC50 (nM), adenylyl cyclase inhibition, Table 3): 170 nM; cAMP Max Resp. (mu opioid receptor (MOR) [3]; maximal response for adenylyl cyclase inhibition, Table 3): 85
Fc1cnc(Cl)nc1N1CCCCC1c1cccc(C(F)(F)F)n1 (stereo not shown) [compound 123] | F (F represents a maximal response of > 60%) | 700 to 2100 nM |  | E (E represents a maximal response of 40-60%) |  |  |  | > 25000 nM | 0 | 14100 nM | 59 | 190 | 1020 nM | > 25000 nM | 17 | 590 nM | < 700 nM | 43 | > 25000 nM | 0 | 
CN1CC[C@]23c4c5ccc(O)c4O[C@H]2[C@@H](O)C=C[C@H]3[C@H]1C5 [morphine, reference compound] |  |  |  |  |  |  |  |  |  |  |  |  |  |  |  |  |  |  |  |  | stomach weight (Sprague-Dawley rats [15]; 20 minutes after charcoal): increased; GI transit (Sprague-Dawley rats [15]; subcutaneous 1 hour before charcoal): significantly decreased; oxygen saturation / respiratory depression (Sprague-Dawley rats [16]): significant reduction in oxygen saturation
